Test results as given in patent EP0911330B1, “1-(4-Arylpiperazine-1-y1)-3-(2-oxopyrrolidin/piperidin-1-y1) propanes as therapeutic agents for hypertension, ischemia, cardiovascular and other adrenergic receptors related disorders” (Council of Scientific & Industrial Research, priority 1997, dated 1999).

Legend:
cat [1] = experiment: Effect on blood pressure and adrenaline vasopressor response in anaesthetized cat, i.v. (Table 2); type: in vivo; conditions: for inhibition at 2 µmol/kg / inhibition in vivo at 2 µmol/kg / inhibition at 10 µmol/kg / inhibition in vivo at 10 µmol/kg: Felis catus, iv; for inhibition at 2 µmol/kg / inhibition at 10 µmol/kg: read-out: Adrenaline vasopressure response % inhibition; for inhibition in vivo at 2 µmol/kg / inhibition in vivo at 10 µmol/kg: read-out: B.P. fall %
Method: • (a) Cats (2.6-4.0 kg) of either sex anaesthetized with pentobarbitone sodium (40 mg/kg i.v.) and showing basal mean arterial blood pressure below 150 mm (Hg) were categorised as normotensive and above 150 mm Hg as hypertensive. Arterial blood pressure (BP) was recorded from one of the carotid artery through a stathum P23 DC pressure transducer and 7P1 low level DC preamplifier on a Grass Model P7 Polygraph, Signals from 7P1 preamplifier were used to trigger 7P4 Tachograph preamplifier for recording the heart rate (HR). Right femoral vein and Trachea were cannulated for intravenous injections and artificial ventilation respectively. Control responses to intravenous injection of noradrenaline (2-4 ug); acetyl choline (1-2 ug); histamine ([…]) and isoprenaline (1-2 ug) were taken before and after the administration of test doses of each compounds.

[2] = tested on: Langendorff perfused rat heart; experiment: Antiischemic activity, Langendorff perfused rat heart, brief (16 min.) ischemic insult, compound given at reperfusion (Table 3); conditions: 0.001 ug/ml at reperfusion
Method: Table 3: Compound administered at the time of reperfusion at a dose of 0.001 ug/ml on brief period (16 min.) of ischemic insult.
(§1) The rats were killed by decapitation, heart were rapidly excised and placed in ice-cold HEPES tyrode buffer. Then isolated hearts were perfused retrogradely through coronary arteries using the Langendorff technique. The perfusion buffer consisted (in mM) NaCl 137, KCl 5.4, CaCl2 1.8, MgCl2 1.0, glucose 11.2 and HEPES 3.0. The buffer (pH 7.4) was continuously gassed with oxygen and maintained at 37°C. Coronary flow rate was maintained at 10 ml/min. The heart contracted spontaneously.
(§2) The perfused heart was allowed to equilibrate for 30 min. before initiation of any insult protocol. The text compounds were given at the time of reperfusion. Some of the compounds were dissolved in ethanol. Final concentration of ethanol in the perfusion buffer was 0.0001% and had no effect of its own on the parameter used. • (a) For brief period of ischemic insult (Hideo et al.). Pathophysiology and pathogenesis of stunned myocardium. J. Clin. Invest., 79, 950-961, 1987). Ischemia was initiated by stopping the flow for 16 min. followed by 30 min. reperfusion period. The durations were decided on the initial pilot experiments leading to 50% recovery of function. • (b) For prolong period of ischemic insult (Becker, L.C. & Ambrosio, G. Myocardial consequences of reperfusion. Prog. Cardiovas. Dis., 30, 23-44, 1987). Ischemia was initiated by stopping the flow for […]. followed by 30 min. reperfusion.

cat [3] = experiment: Comparative antihypertensive effect with clinically used antihypertensive drugs in cat; type: in vivo; conditions: 2 uMol/kg i.v.
[4] = tested on: Langendorff perfused rat heart preparation; experiment: Cardioprotective activity, Langendorff perfused rat heart, prolonged ischemic insult, compound given at reperfusion; conditions: 10^-6M, ischemic insult 45 min.
Method: Further, in Langendorff perfused rat heart preparation subjected to even upto 90 min. global ischemia, the compound at 0.001 ug/ml conc. given at the time of reperfusion revived normal rhythmic contraction started within 2 min. (Table 1) and incidence of reperfusion induced arrhythmia were abolished. Table 1: Compound administered at the time of reperfusion at the dose of 0.001 ug/ml on prolong period (90 min.) of ischemic insult.
as §1, §2

## O=C1CCCCN1CCCN1CCN(c2ccccn2)CC1 [2-Pyridyl, n=2, 1-[4-(2-pyridyl)piperazin-1-yl]-3-[2-oxopiperidin-1-yl] propane]
Cat [1]; dose 2.0 umol/kg i.v.
  inhibition at 2 µmol/kg: 28%
  inhibition in vivo at 2 µmol/kg: 34%
  Dur.: 53 min
Cat [1]; dose 10.0 umol/kg i.v.
  inhibition at 10 µmol/kg: -20 to 0%
  inhibition in vivo at 10 µmol/kg: 42%
  Dur.: >71 min
[2]
  Onset: 2.0 min
  Percentage recovery 15 min.: 47.60 Percentage
  Percentage recovery 30 min.: 71.40 Percentage

## CCc1ccccc1N1CCN(CCCN2CCCC2=O)CC1 [C6H4-2-C2H5, n=1, 1-[4-(2-ethylphenyl)piperazin-1-yl]-3-[2-oxopyrrolidin-1-yl] propane]
Cat [1]; dose 2.0 umol/kg i.v.
  inhibition at 2 µmol/kg: -20 to 0%
  inhibition in vivo at 2 µmol/kg: 13%
  Dur.: 10 min
Cat [1]; dose 10.0 umol/kg i.v.
  inhibition in vivo at 10 µmol/kg: 62%
  Dur.: 10 min
[2]
  Onset: 3.0 min

## O=C1CCCCN1CCCN1CCN(c2cccc(C(F)(F)F)c2)CC1 [C6H4-3-CF3, n=2, 1-[4-(3-trifluoromethylphenyl)piperazin-1-yl]-3-[2-oxopiperidin-1-yl]propane]
Cat [1]; dose 2.0 umol/kg i.v.
  inhibition at 2 µmol/kg: -20 to 0%
Cat [1]; dose 10.0 umol/kg i.v.
  inhibition at 10 µmol/kg: 25%
  inhibition in vivo at 10 µmol/kg: 10%
  Dur.: Tr

## O=C1CCCN1CCCN1CCN(c2cccc(Cl)c2)CC1 [C6H4-3-Cl, n=1, 1-[4-(3-chlorophenyl)piperazin-1-yl]-3-[2-oxopyrrolidin-1-yl]propane]
Cat [1]; dose 2.0 umol/kg i.v.
  inhibition at 2 µmol/kg: -20 to 0%
  inhibition in vivo at 2 µmol/kg: 25%
  Dur.: 20 min
Cat [1]; dose 10.0 umol/kg i.v.
  Dur.: >57 min
[2]
  Onset: 1.0 min

## O=C1CCCCN1CCCN1CCN(c2cccc(Cl)c2)CC1 [C6H4-3-Cl, n=2, 1-[4-(3-chlorophenyl)piperazin-1-yl]-3-[2-oxopiperidin-1-yl] propane]
Cat [1]; dose 2.0 umol/kg i.v.
  inhibition at 2 µmol/kg: 33%
  inhibition in vivo at 2 µmol/kg: 27%
  Dur.: 9 min
Cat [1]; dose 10.0 umol/kg i.v.
  inhibition at 10 µmol/kg: 10%
  inhibition in vivo at 10 µmol/kg: 44%
  Dur.: 62 min
[2]
  Onset: 3.0 min
  Percentage recovery 15 min.: 31.50 Percentage
  Percentage recovery 30 min.: 39.40 Percentage

## O=C1CCCN1CCCN1CCN(c2cccc(F)c2)CC1 [C6H4-3-F, n=1, 1-[4-(3-fluorophenyl)piperazin-1-yl]-3-[2-oxopyrrolidin-1-yl]propane]
Cat [1]; dose 2.0 umol/kg i.v.
  inhibition at 2 µmol/kg: 80%
  inhibition in vivo at 2 µmol/kg: 18%
  Dur.: 3 min
Cat [1]; dose 10.0 umol/kg i.v.
  inhibition at 10 µmol/kg: > 100%
  inhibition in vivo at 10 µmol/kg: 32%
  Dur.: 30 min
[2]
  Onset: 2.0 min

## CCc1ccc(N2CCN(CCCN3CCCC3=O)CC2)cc1 [C6H4-4-C2H5, n=1, 1-[4-(4-ethylphenyl)piperazin-1-yl]-3-[2-oxopyrrolidin-1-yl]propane]
Cat [1]; dose 2.0 umol/kg i.v.
  inhibition in vivo at 2 µmol/kg: 9%
  Dur.: Tr
Cat [1]; dose 10.0 umol/kg i.v.
  inhibition in vivo at 10 µmol/kg: 20%
  Dur.: 14 min
[2]
  Onset: 2.0 min

## O=C1CCCN1CCCN1CCN(c2ccc(Cl)cc2)CC1 [C6H4-4-Cl, n=1, 1-[4-(4-chlorophenyl)piperazin-1-yl]-3-[2-oxopyrrolidin-1-yl]propane]
[2]
  Onset: 1.0 min

## O=C1CCCCN1CCCN1CCN(c2ccc(Cl)cc2)CC1 [C6H4-4-Cl, n=2, 1-[4-(4-chlorophenyl)piperazin-1-yl]-3-[2-oxopiperidin-1-yl] propane]
Cat [1]; dose 2.0 umol/kg i.v.
  inhibition at 2 µmol/kg: 20%
  inhibition in vivo at 2 µmol/kg: 24%
  Dur.: 20 min
Cat [1]; dose 10.0 umol/kg i.v.
  inhibition at 10 µmol/kg: 25%
  inhibition in vivo at 10 µmol/kg: 46%
  Dur.: 25 min

## O=C1CCCCN1CCCN1CCN(c2ccc(F)cc2)CC1 [C6H4-4-F, n=2, 1-[4-(4-fluorophenyl)piperazin-1-yl]-3-[2-oxopiperidin-1-yl] propane]
Cat [1]; dose 2.0 umol/kg i.v.
  inhibition at 2 µmol/kg: 46%
  inhibition in vivo at 2 µmol/kg: 23%
  Dur.: 40 min
Cat [1]; dose 10.0 umol/kg i.v.
  inhibition at 10 µmol/kg: > 100%
  inhibition in vivo at 10 µmol/kg: 33%
  Dur.: >84 min

## C[C@H](CS)C(=O)N1CCC[C@H]1C(=O)O [Captopril, reference compound]
Cat [3]
  B.P. fall: 14%
  Dur.: 28 min

## COC(=O)C1=C(C)NC(C)=C(C(=O)OC)C1c1ccccc1[N+](=O)[O-] [Nifedipine, reference compound]
[4]
  Onset: 2.5 min
